# Measured values from patent US20210337789A1, “Derivatives of m-Guaiacol, Their Preparation and Their Uses” (Universite de Caen Normandie, priority 2018, published 2021).
# Where two headings read alike, the source gives them in different places.
# Key:
# [1] = tested on: E. coli strains presenting high levels of resistance; test: Bacterial growth on E. coli strains presenting high levels of resistance; assay type: cell-based, Escherichia coli; design: key to Effects (0 < 1 < 2 < 3): 0 = no effect; 1 = pure only; 2 = several concs; 3 = strong at each; conditions: for Effects (0 < 1 < 2 < 3): molecules at 1, 0.5 and 0.1 mg/ml, triclosan at 0.1 mg/ml
# Protocol: (§1) The bacterial growth is evaluated by measuring the optical density (DO) at 600 nm using NanoDrop.
# (§2) This ratio permits a classification of the molecules in 4 effect levels: • 0=no effect observed; • 1=effect observed only when the molecule is tested pure; • 2=effect observed at several concentrations, but which gradually decreases the dilutions; • 3=strong effect observed at each concentration of molecule tested.
# (§3) Compounds of the invention were tested on 4 strains of E. coli, 3 strains of K. pneumoniae and 4 strains of S. aureus with the resistance profiles below.
# [2] = tested on: K. pneumoniae strains presenting high levels of resistance; test: Bacterial growth on K. pneumoniae strains presenting high levels of resistance; assay type: cell-based, Klebsiella pneumoniae; design: key to Effects (0 < 1 < 2 < 3): 0 = no effect; 1 = pure only; 2 = several concs; 3 = strong at each; conditions: for Effects (0 < 1 < 2 < 3): molecules at 1, 0.5 and 0.1 mg/ml, triclosan at 0.1 mg/ml
# Protocol: as §1, §2, §3
# [3] = tested on: S. aureus strains presenting high levels of resistance; test: Bacterial growth on S. aureus strains presenting high levels of resistance; assay type: cell-based, Staphylococcus aureus; design: key to Effects (0 < 1 < 2 < 3): 0 = no effect; 1 = pure only; 2 = several concs; 3 = strong at each; conditions: for Effects (0 < 1 < 2 < 3): molecules at 1, 0.5 and 0.1 mg/ml, triclosan at 0.1 mg/ml
# Protocol: as §1, §2, §3
# [4] = tested on: KB cells (epidermoid carcinoma); test: In vitro cytotoxicity, cell proliferation test (MTS) on KB cells; assay type: cell-based; conditions: Homo sapiens, read-out: percentage of inhibition of cell growth
# Protocol: The human cell strain KB (epidermoid carcinoma) was obtained from the NCI (National Cancer Institute) and cultivated in the D-MEM medium added with 10% of foetal bovine serum (Invitrogen) in the presence of penicillin, streptomycin and fungizone in flasks of […] under CO2 at 5%. The cells were deposited on tissue culture microplates with 96 wells and a density of 650 cells/well in 200 μl of medium and treated 24 hours later with compounds of the invention dissolved in DMSO at concentrations going from 0.5 nM to 10 μM using a Biomek 3000 (Beckman-Coulter) automaton. The controls received the same volume of DMSO (1% of final volume). After 72 hours of exposure, the MTS reagent (Celltiter 96Aqueous One solution, Promega) was added and incubated for 3 hours at 37° C.: the absorbance was measured at 490 nm and the results of inhibition of the cell proliferation were calculated according to the ratio [(1−(OD490treated/OD490control))×100].
# Results: Cytotoxicity at 10^−5 and 10^−6M on Triplicate KB Cells, Measured after 72 Hours of Exposure.
# The percentage of inhibition of cell growth with respect to the cells receiving the same quantity of DMSO is outlined in the table below.
# [5] = tested on: Micrococcus luteus reference strain; test: Bacterial growth (optical density at 600 nm) on Micrococcus luteus reference strain; assay type: cell-based; design: key: 0 = no effect, 1 = pure only, 2 = several concentrations, 3 = strong at all; conditions: in DMSO diluted in PBS, compared with triclosan
# Protocol: as §1, §2
# The molecules are put in a solution in DMSO and diluted in PBS.
# [6] = tested on: Escherichia coli; test: Bacterial growth screening on wild-type phenotype strain, E. coli; assay type: cell-based
# Protocol: as §1, §2
# (§4) A screening of molecules of the invention on several wild-type phenotype strains has been carried out.
# (§5) The strains initially selected are: • Gram+: Streptococcus equi subsp zooepidemicus and Staphylococcus aureus • Gram−: Escherichia coli, Klebsiella pneumoniae and Stenotrophomonas maltophila.
# [7] = tested on: Klebsiella pneumoniae; test: Bacterial growth screening on wild-type phenotype strain, K. pneumoniae; assay type: cell-based
# Protocol: as §1, §2, §4, §5
# [8] = tested on: Streptococcus equi subsp zooepidemicus; test: Bacterial growth screening on wild-type phenotype strain, S. zooepidemicus; assay type: cell-based
# Protocol: as §1, §2, §4, §5
# [9] = tested on: Staphylococcus aureus; test: Bacterial growth screening on wild-type phenotype strain, S. aureus; assay type: cell-based
# Protocol: as §1, §2, §4, §5
# [10] = tested on: Stenotrophomonas maltophila; test: Bacterial growth screening on wild-type phenotype strain, S. maltophila; assay type: cell-based
# Protocol: as §1, §2, §4, §5
# [11] = K. pneumoniae Strain 1, 0.1 mg/ml
# [12] = K. pneumoniae Strain 2, 0.1 mg/ml
# [13] = K. pneumoniae Strain 3, 0.1 mg/ml
# [14] = 10^−5 M, KB cells, triplicate, 72 hours of exposure, with respect to DMSO control
# [15] = 10^−6 M, KB cells, triplicate, 72 hours of exposure, with respect to DMSO control
smiles,measurement,setting,value
"Oc1cc(Cl)ccc1Oc1ccc(Cl)cc1Cl [Triclosan, reference compound]",Δ DO,"[1]; E. coli Strain 1, 0.1 mg/ml",1.005
same,Effects (0 < 1 < 2 < 3),[1]; E. coli Strain 1,3
same,Δ DO,"[1]; E. coli Strain 2, 0.1 mg/ml",1.197
same,Effects (0 < 1 < 2 < 3),[1]; E. coli Strain 2,3
same,Δ DO,"[1]; E. coli Strain 3, 0.1 mg/ml",0.948
same,Effects (0 < 1 < 2 < 3),[1]; E. coli Strain 3,3
same,Δ DO,"[1]; E. coli Strain 4, 0.1 mg/ml",1.080
same,Effects (0 < 1 < 2 < 3),[1]; E. coli Strain 4,3
same,Δ DO,[2]; [11],0.824
same,Effects (0 < 1 < 2 < 3),[2]; K. pneumoniae Strain 1,3
same,Δ DO,[2]; [12],0.893
same,Effects (0 < 1 < 2 < 3),[2]; K. pneumoniae Strain 2,3
same,Δ DO,[2]; [13],1.092
same,Effects (0 < 1 < 2 < 3),[2]; K. pneumoniae Strain 3,3
same,Δ DO,"[3]; S. aureus Strain 1, 0.1 mg/ml",0.441
same,Effects (0 < 1 < 2 < 3),[3]; S. aureus Strain 1,3
same,Δ DO,"[3]; S. aureus Strain 2, 0.1 mg/ml",0.459
same,Effects (0 < 1 < 2 < 3),[3]; S. aureus Strain 2,3
same,Δ DO,"[3]; S. aureus Strain 3, 0.1 mg/ml",0.532
same,Effects (0 < 1 < 2 < 3),[3]; S. aureus Strain 3,3
same,Δ DO,"[3]; S. aureus Strain 4, 0.1 mg/ml",0.490
same,Effects (0 < 1 < 2 < 3),[3]; S. aureus Strain 4,3
same,inhibition at 1 µM,"[4]; KB, 72 h",5 ± 12%
same,inhibition at 10 µM,"[4]; KB, 72 h",78 ± 3%
COc1cc(O)c(F)cc1Cl [sr7580],inhibition at 10 µM,[4]; [14],16 ± 4%
same,inhibition at 1 µM,[4]; [15],5 ± 8%
COc1cc(O)c(Cl)cc1F [sr7581],inhibition at 10 µM,[4]; [14],0%
same,inhibition at 1 µM,[4]; [15],0%
COc1cc(O)c(Br)cc1Br [sr7582],inhibition at 1 µM,"[4]; KB, 72 h",0%
same,inhibition at 10 µM,"[4]; KB, 72 h",1 ± 7%
COc1cc(O)c(Cl)cc1Br [sr7583],Effect level,[5],3
same,"Effect level, E. coli",[6],2
same,"Effect level, K. pneumoniae",[7],2
same,inhibition at 10 µM,[4]; [14],0%
same,inhibition at 1 µM,[4]; [15],0%
COc1cc(O)c(I)cc1I [sr7584],Effect level,[5],2
same,inhibition at 1 µM,"[4]; KB, 72 h",0%
same,inhibition at 10 µM,"[4]; KB, 72 h",0%
COc1cc(O)c(Cl)c(Cl)c1Cl [sr7585],Effect level,[5],3
same,"Effect level, S. zooepidemicus",[8],3
same,"Effect level, S. aureus",[9],3
same,"Effect level, E. coli",[6],3
same,"Effect level, K. pneumoniae",[7],2
same,"Effect level, S. maltophila",[10],2
same,Δ DO,"[1]; E. coli Strain 1, 0.1 mg/ml",0.196
same,Δ DO,"[1]; E. coli Strain 1, 0.5 mg/ml",0.746
same,Δ DO,"[1]; E. coli Strain 1, 1 mg/ml",0.920
same,Effects (0 < 1 < 2 < 3),[1]; E. coli Strain 1,3
same,Δ DO,"[1]; E. coli Strain 2, 0.1 mg/ml",0.313
same,Δ DO,"[1]; E. coli Strain 2, 0.5 mg/ml",0.964
same,Δ DO,"[1]; E. coli Strain 2, 1 mg/ml",1.097
same,Effects (0 < 1 < 2 < 3),[1]; E. coli Strain 2,3
same,Δ DO,"[1]; E. coli Strain 3, 0.1 mg/ml",0.186
same,Δ DO,"[1]; E. coli Strain 3, 0.5 mg/ml",0.736
same,Δ DO,"[1]; E. coli Strain 3, 1 mg/ml",0.893
same,Effects (0 < 1 < 2 < 3),[1]; E. coli Strain 3,3
same,Δ DO,"[1]; E. coli Strain 4, 0.1 mg/ml",0.322
same,Δ DO,"[1]; E. coli Strain 4, 0.5 mg/ml",0.848
same,Δ DO,"[1]; E. coli Strain 4, 1 mg/ml",0.979
same,Effects (0 < 1 < 2 < 3),[1]; E. coli Strain 4,3
same,Δ DO,[2]; [11],0.251
same,Δ DO,"[2]; K. pneumoniae Strain 1, 0.5 mg/ml",0.595
same,Δ DO,"[2]; K. pneumoniae Strain 1, 1 mg/ml",0.644
same,Effects (0 < 1 < 2 < 3),[2]; K. pneumoniae Strain 1,3
same,Δ DO,[2]; [12],0.035
same,Δ DO,"[2]; K. pneumoniae Strain 2, 0.5 mg/ml",0.620
same,Δ DO,"[2]; K. pneumoniae Strain 2, 1 mg/ml",0.701
same,Effects (0 < 1 < 2 < 3),[2]; K. pneumoniae Strain 2,2
same,Δ DO,[2]; [13],0.265
same,Δ DO,"[2]; K. pneumoniae Strain 3, 0.5 mg/ml",0.683
same,Δ DO,"[2]; K. pneumoniae Strain 3, 1 mg/ml",0.872
same,Effects (0 < 1 < 2 < 3),[2]; K. pneumoniae Strain 3,2
same,Δ DO,"[3]; S. aureus Strain 1, 0.1 mg/ml",0.352
same,Δ DO,"[3]; S. aureus Strain 1, 0.5 mg/ml",0.445
same,Δ DO,"[3]; S. aureus Strain 1, 1 mg/ml",0.445
same,Effects (0 < 1 < 2 < 3),[3]; S. aureus Strain 1,3
same,Δ DO,"[3]; S. aureus Strain 2, 0.1 mg/ml",0.385
same,Δ DO,"[3]; S. aureus Strain 2, 0.5 mg/ml",0.458
same,Δ DO,"[3]; S. aureus Strain 2, 1 mg/ml",0.457
same,Effects (0 < 1 < 2 < 3),[3]; S. aureus Strain 2,3
same,Δ DO,"[3]; S. aureus Strain 3, 0.1 mg/ml",0.459
same,Δ DO,"[3]; S. aureus Strain 3, 0.5 mg/ml",0.529
same,Δ DO,"[3]; S. aureus Strain 3, 1 mg/ml",0.530
same,Effects (0 < 1 < 2 < 3),[3]; S. aureus Strain 3,3
same,Δ DO,"[3]; S. aureus Strain 4, 0.1 mg/ml",0.405
same,Δ DO,"[3]; S. aureus Strain 4, 0.5 mg/ml",0.491
same,Δ DO,"[3]; S. aureus Strain 4, 1 mg/ml",0.486
same,Effects (0 < 1 < 2 < 3),[3]; S. aureus Strain 4,3
same,inhibition at 10 µM,[4]; [14],0%
same,inhibition at 1 µM,[4]; [15],0%
COc1c(Cl)cc(Cl)c(O)c1Cl [sr7586],inhibition at 10 µM,[4]; [14],0%
same,inhibition at 1 µM,[4]; [15],6 ± 8%
COc1c(Cl)c(O)c(Cl)c(F)c1Cl [sr7587],inhibition at 10 µM,[4]; [14],0%
same,inhibition at 1 µM,[4]; [15],8 ± 4%
COc1c(Cl)cc(Cl)c(O)c1C [sr7607],Effect level,[5],2
same,inhibition at 10 µM,[4]; [14],0%
same,inhibition at 1 µM,[4]; [15],0%
COc1cc(O)c(Cl)c(C)c1Cl [sr7608],Effect level,[5],2
same,inhibition at 10 µM,[4]; [14],7 ± 11%
same,inhibition at 1 µM,[4]; [15],0%
COc1cc(O)c(Cl)c(Br)c1 [sr7609],Effect level,[5],3
same,"Effect level, S. aureus",[9],2
same,"Effect level, E. coli",[6],2
same,"Effect level, K. pneumoniae",[7],2
same,"Effect level, S. maltophila",[10],2
COc1cc(O)c(Cl)c(F)c1F [sr7610],Effect level,[5],2
COc1cc(O)c(Br)c(F)c1F [sr7611],Effect level,[5],2
COc1cc(O)c(I)c(F)c1F [sr7612],Effect level,[5],2
COc1cc(O)c(Cl)c(Br)c1F [sr7614],Effect level,[5],3
same,"Effect level, S. zooepidemicus",[8],2
same,"Effect level, S. aureus",[9],2
same,"Effect level, E. coli",[6],3
same,"Effect level, K. pneumoniae",[7],2
same,"Effect level, S. maltophila",[10],2
same,inhibition at 10 µM,[4]; [14],6 ± 4%
same,inhibition at 1 µM,[4]; [15],0%
Oc1cc(I)c(F)cc1F [sr7618],Effect level,[5],2
